# Measurements published in patent US20090138988A1, “MODIFICATION OF PLANT DISEASE RESISTANCE” (priority 2007, published 2009).
# System: P. syringae pv. tabaci
# Assay: Squalene complementation of SQS1 RNAi line resistance to nonhost pathogen
# Assay type: in vivo, Arabidopsis
# Procedure: Squalene was supplied at the concentration as indicated above each panel when transplanting two-week old seedlings and thereafter watering. P. syringae pv. tabaci was infiltrated into leaves of four-week old plants at 1×10^7 cfu/ml. The inoculated plants were kept at 19-21° C. and covered to keep high humidity. Pictures were taken 3 days post inoculation
# It was hypothesized that SQS1 RNAi lines would have less squalene compared to wild-type plants. Arabidopsis has two SQS genes: SQS1 and SQS2. T-DNA knockout lines for SQS2 are not available in SALK or GABI collections. Even though both SQS1 and SQS2 have more than 80% nucleotide identity, in the SQS1 RNAi line, only the transcripts of SQS1 was reduced but not SQS2 (FIG. 10). A brief pathway of sterol biosynthesis in plants and also other pathways that may be affected by silencing of SQS1 are shown in FIG. 11. […] It was therefore shown that squalene plays a critical role in conferring nonhost resistance against certain pathogens, and the role is recoverable in susceptible RNAi lines by squalene dosing.
smiles,measurement,setting,value
CC(C)=CCC/C(C)=C/CC/C(C)=C/CC/C=C(\C)CC/C=C(\C)CCC=C(C)C [squalene],recovery of nonhost resistance of SQS1 RNAi lines,"10 μM squalene fed, P. syringae pv. tabaci 1×10^7 cfu/ml, 3 days post inoculation",completely recovered resistance phenotype back to wild-type levels
same,recovery of nonhost resistance of SQS1 RNAi lines,"squalene fed at 1 μM to 10 μM, P. syringae pv. tabaci",recovered nonhost resistance in a dose dependent manner
